Laboratory results reported in the supplement of paper PMC8612539.
In brackets after ≈: the same amount, converted by molar mass.

Tested on: Escherichia coli
Test: minimum inhibitory concentration (MIC)
Protocol: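 Broth microdilution MIC (Sensititre BOPO7F bovine plate, CLSI methods) of 19 antimicrobials against field isolates of P. multocida, M. haemolytica, H. somni (deep nasopharyngeal swabs) and E. coli, Enterococcus spp. (rectal swabs) from weaned dairy heifers. Incubation 16-24 h at 35 C. MIC is the lowest concentration preventing visible growth. Values with <= or > lie at the tested range limits. Trimethoprim-sulfamethoxazole is given as the trimethoprim component of a 1:19 mixture.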

CC1(C)S[C@@H]2[C@H](NC(=O)Cc3ccccc3)C(=O)N2[C@H]1C(=O)O [Penicillin]
Conditions	minimum inhibitory concentration [µg/mL]
isolate (source animal id): 8	> 8
isolate (source animal id): 9	> 8
isolate (source animal id): 10	> 8
isolate (source animal id): 11	> 8
isolate (source animal id): 12	> 8
isolate (source animal id): 13	> 8
isolate (source animal id): 14	> 8
isolate (source animal id): 15	> 8
isolate (source animal id): 16	> 8
isolate (source animal id): 98	> 8
isolate (source animal id): 99	> 8
isolate (source animal id): 100	> 8
isolate (source animal id): 101	4 (≈ 12 µM)
isolate (source animal id): 102	> 8
isolate (source animal id): 103	> 8
isolate (source animal id): 104	> 8
isolate (source animal id): 105	> 8
isolate (source animal id): 106	> 8
isolate (source animal id): 107	> 8
isolate (source animal id): 108	> 8
isolate (source animal id): 109	> 8
isolate (source animal id): 110	> 8
isolate (source animal id): 111	> 8
isolate (source animal id): 112	> 8
isolate (source animal id): 113	> 8
isolate (source animal id): 114	> 8
isolate (source animal id): 115	> 8
isolate (source animal id): 116	> 8
isolate (source animal id): 117	> 8
isolate (source animal id): 118	> 8
isolate (source animal id): 119	> 8
isolate (source animal id): 120	> 8
isolate (source animal id): 121	> 8
isolate (source animal id): 122	8 (≈ 23.9 µM)
isolate (source animal id): 123	> 8
isolate (source animal id): 124	> 8
isolate (source animal id): 125	> 8
isolate (source animal id): 126	> 8
isolate (source animal id): 127	> 8
isolate (source animal id): 128	> 8
isolate (source animal id): 129	> 8
isolate (source animal id): 130	> 8
isolate (source animal id): 131	> 8
isolate (source animal id): 132	> 8
isolate (source animal id): 133	> 8
isolate (source animal id): 134	> 8
isolate (source animal id): 135	> 8
isolate (source animal id): 136	> 8
isolate (source animal id): 137	> 8
isolate (source animal id): 138	> 8
isolate (source animal id): 139	8 (≈ 23.9 µM)
isolate (source animal id): 140	> 8
isolate (source animal id): 141	> 8
isolate (source animal id): 142	> 8
isolate (source animal id): 143	> 8
isolate (source animal id): 144	> 8
isolate (source animal id): 145	> 8
isolate (source animal id): 146	> 8
isolate (source animal id): 147	> 8
isolate (source animal id): 148	> 8
isolate (source animal id): 149	> 8
isolate (source animal id): 150	> 8
isolate (source animal id): 151	8 (≈ 23.9 µM)
isolate (source animal id): 152	> 8
isolate (source animal id): 153	> 8
isolate (source animal id): 154	> 8
isolate (source animal id): 155	> 8
isolate (source animal id): 156	> 8
isolate (source animal id): 157	> 8
isolate (source animal id): 158	> 8
isolate (source animal id): 159	> 8
isolate (source animal id): 160	> 8
isolate (source animal id): 161	> 8
isolate (source animal id): 162	> 8
isolate (source animal id): 163	> 8
isolate (source animal id): 164	> 8
isolate (source animal id): 165	> 8
isolate (source animal id): 166	> 8
isolate (source animal id): 167	> 8
isolate (source animal id): 168	> 8
isolate (source animal id): 169	> 8
isolate (source animal id): 170	> 8
isolate (source animal id): 171	> 8
isolate (source animal id): 172	> 8
isolate (source animal id): 173	> 8
isolate (source animal id): 174	> 8
isolate (source animal id): 175	> 8
isolate (source animal id): 176	> 8
isolate (source animal id): 177	> 8
isolate (source animal id): 178	> 8
isolate (source animal id): 179	> 8
isolate (source animal id): 180	> 8
isolate (source animal id): 181	> 8
isolate (source animal id): 182	> 8
isolate (source animal id): 183	> 8
isolate (source animal id): 184	> 8
isolate (source animal id): 185	> 8
isolate (source animal id): 186	> 8
isolate (source animal id): 187	> 8
isolate (source animal id): 188	> 8

CCCN1C[C@H](C)[C@@H](O)[C@](C)(O)[C@@H](CC)OC(=O)[C@H](C)[C@@H](O[C@H]2C[C@@](C)(OC)[C@@H](O)[C@H](C)O2)[C@H](C)[C@@H](O[C@@H]2O[C@H](C)C[C@H](N(C)C)[C@H]2O)[C@](C)(O)C[C@H]1C [Gamithromycin]
Conditions	minimum inhibitory concentration [µg/mL]
isolate (source animal id): 8	8 (≈ 10.3 µM)
isolate (source animal id): 9	> 8
isolate (source animal id): 10	8 (≈ 10.3 µM)
isolate (source animal id): 11	8 (≈ 10.3 µM)
isolate (source animal id): 12	8 (≈ 10.3 µM)
isolate (source animal id): 13	8 (≈ 10.3 µM)
isolate (source animal id): 14	> 8
isolate (source animal id): 15	4 (≈ 5.15 µM)
isolate (source animal id): 16	8 (≈ 10.3 µM)
isolate (source animal id): 98	8 (≈ 10.3 µM)
isolate (source animal id): 99	8 (≈ 10.3 µM)
isolate (source animal id): 100	4 (≈ 5.15 µM)
isolate (source animal id): 101	8 (≈ 10.3 µM)
isolate (source animal id): 102	8 (≈ 10.3 µM)
isolate (source animal id): 103	8 (≈ 10.3 µM)
isolate (source animal id): 104	8 (≈ 10.3 µM)
isolate (source animal id): 105	8 (≈ 10.3 µM)
isolate (source animal id): 106	> 8
isolate (source animal id): 107	8 (≈ 10.3 µM)
isolate (source animal id): 108	8 (≈ 10.3 µM)
isolate (source animal id): 109	8 (≈ 10.3 µM)
isolate (source animal id): 110	4 (≈ 5.15 µM)
isolate (source animal id): 111	4 (≈ 5.15 µM)
isolate (source animal id): 112	8 (≈ 10.3 µM)
isolate (source animal id): 113	4 (≈ 5.15 µM)
isolate (source animal id): 114	8 (≈ 10.3 µM)
isolate (source animal id): 115	> 8
isolate (source animal id): 116	4 (≈ 5.15 µM)
isolate (source animal id): 117	> 8
isolate (source animal id): 118	8 (≈ 10.3 µM)
isolate (source animal id): 119	> 8
isolate (source animal id): 120	> 8
isolate (source animal id): 121	8 (≈ 10.3 µM)
isolate (source animal id): 122	8 (≈ 10.3 µM)
isolate (source animal id): 123	8 (≈ 10.3 µM)
isolate (source animal id): 124	> 8
isolate (source animal id): 125	≤ 1
isolate (source animal id): 126	> 8
isolate (source animal id): 127	8 (≈ 10.3 µM)
isolate (source animal id): 128	4 (≈ 5.15 µM)
isolate (source animal id): 129	4 (≈ 5.15 µM)
isolate (source animal id): 130	4 (≈ 5.15 µM)
isolate (source animal id): 131	4 (≈ 5.15 µM)
isolate (source animal id): 132	8 (≈ 10.3 µM)
isolate (source animal id): 133	8 (≈ 10.3 µM)
isolate (source animal id): 134	8 (≈ 10.3 µM)
isolate (source animal id): 135	8 (≈ 10.3 µM)
isolate (source animal id): 136	8 (≈ 10.3 µM)
isolate (source animal id): 137	8 (≈ 10.3 µM)
isolate (source animal id): 138	> 8
isolate (source animal id): 139	> 8
isolate (source animal id): 140	8 (≈ 10.3 µM)
isolate (source animal id): 141	> 8
isolate (source animal id): 142	8 (≈ 10.3 µM)
isolate (source animal id): 143	> 8
isolate (source animal id): 144	> 8
isolate (source animal id): 145	> 8
isolate (source animal id): 146	8 (≈ 10.3 µM)
isolate (source animal id): 147	> 8
isolate (source animal id): 148	8 (≈ 10.3 µM)
isolate (source animal id): 149	8 (≈ 10.3 µM)
isolate (source animal id): 150	> 8
isolate (source animal id): 151	8 (≈ 10.3 µM)
isolate (source animal id): 152	4 (≈ 5.15 µM)
isolate (source animal id): 153	8 (≈ 10.3 µM)
isolate (source animal id): 154	8 (≈ 10.3 µM)
isolate (source animal id): 155	4 (≈ 5.15 µM)
isolate (source animal id): 156	> 8
isolate (source animal id): 157	8 (≈ 10.3 µM)
isolate (source animal id): 158	8 (≈ 10.3 µM)
isolate (source animal id): 159	4 (≈ 5.15 µM)
isolate (source animal id): 160	> 8
isolate (source animal id): 161	> 8
isolate (source animal id): 162	8 (≈ 10.3 µM)
isolate (source animal id): 163	8 (≈ 10.3 µM)
isolate (source animal id): 164	8 (≈ 10.3 µM)
isolate (source animal id): 165	8 (≈ 10.3 µM)
isolate (source animal id): 166	4 (≈ 5.15 µM)
isolate (source animal id): 167	8 (≈ 10.3 µM)
isolate (source animal id): 168	8 (≈ 10.3 µM)
isolate (source animal id): 169	8 (≈ 10.3 µM)
isolate (source animal id): 170	8 (≈ 10.3 µM)
isolate (source animal id): 171	8 (≈ 10.3 µM)
isolate (source animal id): 172	8 (≈ 10.3 µM)
isolate (source animal id): 173	4 (≈ 5.15 µM)
isolate (source animal id): 174	8 (≈ 10.3 µM)
isolate (source animal id): 175	8 (≈ 10.3 µM)
isolate (source animal id): 176	8 (≈ 10.3 µM)
isolate (source animal id): 177	8 (≈ 10.3 µM)
isolate (source animal id): 178	8 (≈ 10.3 µM)
isolate (source animal id): 179	8 (≈ 10.3 µM)
isolate (source animal id): 180	8 (≈ 10.3 µM)
isolate (source animal id): 181	> 8
isolate (source animal id): 182	8 (≈ 10.3 µM)
isolate (source animal id): 183	8 (≈ 10.3 µM)
isolate (source animal id): 184	8 (≈ 10.3 µM)
isolate (source animal id): 185	8 (≈ 10.3 µM)
isolate (source animal id): 186	8 (≈ 10.3 µM)
isolate (source animal id): 187	4 (≈ 5.15 µM)
isolate (source animal id): 188	2 (≈ 2.57 µM)
